Tests used:
[1] = tested on: blood serum HDL cholesterol; experiment: Determination of serum HDL cholesterol in cholesterol/cholic acid-fed rats; assay type: in vivo; details: Rattus norvegicus, feed or water, 192 h; male Sprague-Dawley rats, diet supplemented with 0.25% cholic acid and 1.0% cholesterol; 100 mg/kg mixed in diet; eight days; serum HDL-C by FPLC; read-out: HDL Cholesterol Level Increase (%)
Description: The ability of the compounds of this invention to increase blood serum HDL levels was established by the following standard experimental procedure for determination of HDL cholesterol:
Male Sprague-Dawley rats weighing 200–225 g were housed two per cage and fed Purina Rodent Chow Special Mix 5001-S supplemented with 0.25% cholic acid and 1.0% cholesterol and water ad libitum for 8 days. Each test substance was administered to a group of six rats fed the same diet with the test diet mixed in as 0.005–0.1% of the total diet. Body weight and food consumption were recorded prior to diet administration and at termination. Typical doses of the test substances are 5–100 mg/kg/day.
At termination, blood was collected from anesthetized rats and the serum was separated by centrifugation. Total serum cholesterol was assayed using the Sigma Diagnostics enzymatic kit for the determination of cholesterol, Procedure No. 352, modified for use with ninety-six well microtiter plates. After reconstitution with water the reagent contained 300 U/I cholesterol oxidase, 100 U/I cholesterol esterase, 1000 U/I horseradish peroxidase, 0.3 mmoles/l 4-aminoantipyrine and 30.0 mmoles/l p-hydroxybenzenesulfonate in a pH 6.5 buffer. In the reaction, cholesterol was oxidized to produce hydrogen peroxide which is used to form a quinoneimine dye. The concentration of dye formed was measured spectrophotometrically by absorbance at 490 nm after incubation at 25° C. for 30 minutes. The concentration of cholesterol was determined for each serum sample relative to a commercial standard from Sigma.
HDL cholesterol concentrations in serum were determined by separation of lipoprotein classes by fast protein liquid chromatography (FPLC) by a modification of the method of Kieft et al., J. Lipid Res., 32 (1991) 859–866. 25 ul of serum was injected onto Superose 12 and Superose 6 (Pharmacia), in series, with a column buffer of 0.05 M Tris (2-amino-2-hydroxymethyl-1,3-propanediol) and 0.15 M sodium chloride at a flow rate of 0.5 ml/min. The eluted sample was mixed on line with Boehringer-Mannheim cholesterol reagent pumped at 0.2 ml/min. The combined eluents were mixed and incubated on line through a knitted coil (Applied Biosciences) maintained at a temperature of 45 C. The eluent was monitored by measuring absorbance at 490 nm and gave a continuous absorbance signal proportional to the cholesterol concentration. The relative concentration of each lipoprotein class was calculated as the percent of total absorbance. HDL cholesterol concentration, in serum, was calculated as the percent of total cholesterol as determined by FPLC multiplied by the total serum cholesterol concentration.
Test compounds were administered at a dose of 100 mg/kg. Each test substance is administered to a group of six rats. The duration of treatment was eight days.

SMILES	melting point	change in vivo at 100 mg/kg [1]
CCOC(=O)CON1C(=O)C(=O)N(c2cc(Cl)ccc2C)C1=S [Example 1, Ethyl 2-{[3-(5-chloro-2-methylphenyl)-4,5-dioxo-2-thioxo-1-imidazolidinyl]oxy}acetate]	157 to 159 °C	242%
CCOC(=O)CON1C(=O)C(=O)N(c2ccccc2SC)C1=S [Example 2, Ethyl 2-({3-[2-(methylsulfanyl)phenyl]-4,5-dioxo-2-thioxo-1-imidazolidinyl}oxy)acetate]	112 to 114 °C	196%
CCN1C(=O)C(=O)N(c2cc(Cl)ccc2C)C1=S [Example 3, 1-(5-Chloro-2-methylphenyl)-3-ethyl-2-thioxo-4,5-imidazolidinedione]	173 to 174 °C	19%
CCN1C(=O)C(=O)N(c2cc(F)ccc2C)C1=S [Example 4, 1-Ethyl-3-(5-fluoro-2-methylphenyl)-2-thioxo-4,5-imidazolidinedione]	152 to 153 °C	203%
Cc1ccc(Cl)cc1N1C(=O)C(=O)N(C)C1=S [Example 5, 1-(5-Chloro-2-methylphenyl)-3-methyl-2-thioxo-4,5-imidazolidinedione]	171 to 173 °C	186%
Cc1cccc(C)c1N1C(=O)C(=O)N(C)C1=S [Example 6, 1-(2,6-Dimethylphenyl)-3-methyl-2-thioxo-4,5-imidazolidinedione]	144 to 146 °C	227%
CCN1C(=O)C(=O)N(c2ccc(F)cc2)C1=S [Example 7, 1-Ethyl-3-(4-fluorophenyl)-2-thioxo-4,5-imidazolidinedione]	172 to 174 °C	199%
CCN1C(=O)C(=O)N(c2ccc(Cl)cc2C)C1=S [Example 8, 1-(4-Chloro-2-methylphenyl)-3-ethyl-2-thioxo-4,5-imidazolidinedione]	161 to 162 °C	103%
C#CCN1C(=O)C(=O)N(c2cc(Cl)ccc2C)C1=S [Example 9, 1-(5-Chloro-2-methylphenyl)-3-(2-propynyl)-2-thioxo-4,5-imidazolidinedione]	162 to 164 °C	114%
CCN1C(=O)C(=O)N(c2c(C)cccc2C)C1=S [Example 10, 1-(2,6-Dimethylphenyl)-3-ethyl-2-thioxo-4,5-imidazolidinedione]	103 to 105 °C	36%
